Laboratory results as given in US9409905B2, “Antibacterial compounds and methods for use” (PTC THERAPEUTICS, INC., priority 2011, dated 2016).
Converted amounts (≈) assume the structure as drawn.

Tests used:
[1] = tested on: Escherichia coli (E. coli) BAS849; test: Antibacterial activity, microbroth dilution MIC (Table 1); format: cell-based; details: microbroth dilution, super sensitive Gram-negative E. coli BAS849, read-out: MIC, BAS849
Outline: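 Each strain is exposed to test compound in a microbroth dilution series; visible growth is scored macroscopically, and the lowest growth-free concentration is recorded as MIC in μg/mL.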

[2] = tested on: Staphylococcus aureus (S. aureus) 29213; test: as above; format: cell-based; details: microbroth dilution, Gram-positive S. aureus 29213, read-out: MIC, 29213
Outline: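 Values are MICs (μg/mL): the smallest drug amount at which macroscopically visible bacterial growth is absent under assay conditions, from a microdilution method in broth.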

E. coli 25922 = test: as above; format: cell-based, Escherichia coli; details: Escherichia coli; microbroth dilution; control Gram-negative E. coli 25922 strain; read-out: MIC, 25922
Outline: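 Broth microdilution; endpoint = no macroscopic growth; value = lowest inhibiting concn, μg/mL.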

E. coli LZ3111 = test: Antibacterial activity, MIC, quinolone resistant strain (Table 2); format: cell-based; details: Escherichia coli, LZ3111, read-out: MIC LZ3111
Outline: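 Microbroth dilution method; MIC (μg/mL) is the lowest drug concentration preventing macroscopically visible growth under test conditions.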

## CCc1cc(C(=O)O)c(=O)[nH]c1-c1ccc2c(cc(CN3CCCC3)n2C)c1F [Cpd 158, 5-ethyl-6-(4-fluoro-1-methyl-2-(pyrrolidin-1-ylmethyl)-1H-indol-5-yl)-2-oxo-1,2-dihydropyridine-3-carboxylic acid]
[1]
  MIC: < 1 µg/mL
[2]
  MIC: 12.5 to 150 µg/mL (≈ 31.5 to 377 µM)
E. coli 25922
  MIC: 1 to 3.5 µg/mL (≈ 2.52 to 8.81 µM)
E. coli LZ3111
  MIC: 12.5 to 150 µg/mL (≈ 31.5 to 377 µM)

## CCc1cc(C(=O)O)c(=O)[nH]c1-c1ccc2c(c1)cc(CCN)n2C.Cl [Cpd 163, 6-(2-(2-aminoethyl)-1-methyl-1H-indol-5-yl)-5-ethyl-2-oxo-1,2-dihydropyridine-3-carboxylic acid hydrochloride]
[1]
  MIC: < 1 µg/mL
[2]
  MIC: 12.5 to 150 µg/mL
E. coli 25922
  MIC: 12.5 to 150 µg/mL
E. coli LZ3111
  MIC: 12.5 to 150 µg/mL

## CCc1c(-c2ccc3c(c2)cc(CN2C[C@@H](C)N(C)[C@@H](C)C2)n3C)[nH]c(=O)c(C(=O)O)c1O [Cpd 170, 5-ethyl-4-hydroxy-6-(1-methyl-2-(((3S,5R)-3,4,5-trimethylpiperazin-1-yl)methyl)-1H-indol-5-yl)-2-oxo-1,2-dihydropyridine-3-carboxylic acid]
[1]
  MIC: < 1 µg/mL
[2]
  MIC: 12.5 to 150 µg/mL (≈ 27.6 to 331 µM)
E. coli 25922
  MIC: 3.5 to 12.5 µg/mL (≈ 7.73 to 27.6 µM)
E. coli LZ3111
  MIC: 12.5 to 150 µg/mL (≈ 27.6 to 331 µM)

## CCc1c(-c2ccc3c(c2)cc(CN2C[C@@H](C)O[C@@H](C)C2)n3C)[nH]c(=O)c(C(=O)O)c1O [Cpd 172, 6-(2-(((2S,6R)-2,6-dimethylmorpholino)methyl)-1-methyl-1H-indol-5-yl)-5-ethyl-4-hydroxy-2-oxo-1,2-dihydropyridine-3-carboxylic acid]
[1]
  MIC: < 1 µg/mL
[2]
  MIC: 3.5 to 12.5 µg/mL (≈ 7.96 to 28.4 µM)
E. coli 25922
  MIC: 12.5 to 150 µg/mL (≈ 28.4 to 341 µM)
E. coli LZ3111
  MIC: 12.5 to 150 µg/mL (≈ 28.4 to 341 µM)

## CCc1c(-c2ccc3c(c2)cc(CN2CCN(C(C)C)CC2)n3C)[nH]c(=O)c(C(=O)O)c1O [Cpd 174, 5-ethyl-4-hydroxy-6-(2-((4-isopropylpiperazin-1-yl)methyl)-1-methyl-1H-indol-5-yl)-2-oxo-1,2-dihydropyridine-3-carboxylic acid]
[1]
  MIC: < 1 µg/mL
[2]
  MIC: 3.5 to 12.5 µg/mL (≈ 7.73 to 27.6 µM)
E. coli 25922
  MIC: 1 to 3.5 µg/mL (≈ 2.21 to 7.73 µM)
E. coli LZ3111
  MIC: 12.5 to 150 µg/mL (≈ 27.6 to 331 µM)

## CCc1c(-c2ccc3c(c2)cc(CN2CCN(C(C)=O)CC2)n3C)[nH]c(=O)c(C(=O)O)c1O [Cpd 175, 6-(2-((4-acetylpiperazin-1-yl)methyl)-1-methyl-1H-indol-5-yl)-5-ethyl-4-hydroxy-2-oxo-1,2-dihydropyridine-3-carboxylic acid]
[1]
  MIC: < 1 µg/mL
[2]
  MIC: 1 to 3.5 µg/mL (≈ 2.21 to 7.73 µM)
E. coli 25922
  MIC: 3.5 to 12.5 µg/mL (≈ 7.73 to 27.6 µM)
E. coli LZ3111
  MIC: 12.5 to 150 µg/mL (≈ 27.6 to 331 µM)

## CCc1c(-c2ccc3c(c2)cc(CN2CCC(F)(F)C2)n3C)[nH]c(=O)c(C(=O)O)c1O [Cpd 176, 6-(2-((3,3-difluoropyrrolidin-1-yl)methyl)-1-methyl-1H-indol-5-yl)-5-ethyl-4-hydroxy-2-oxo-1,2-dihydropyridine-3-carboxylic acid]
[1]
  MIC: < 1 µg/mL
[2]
  MIC: 1 to 3.5 µg/mL (≈ 2.32 to 8.11 µM)
E. coli 25922
  MIC: 12.5 to 150 µg/mL (≈ 29 to 348 µM)
E. coli LZ3111
  MIC: 12.5 to 150 µg/mL (≈ 29 to 348 µM)

## CCc1c(-c2ccc3c(c2)cc(CN2CCC(NC(C)=O)C2)n3C)[nH]c(=O)c(C(=O)O)c1O (centres unmarked) [Cpd 183, 6-(2-((3-acetamidopyrrolidin-1-yl)methyl)-1-methyl-1H-indol-5-yl)-5-ethyl-4-hydroxy-2-oxo-1,2-dihydropyridine-3-carboxylic acid]
[1]
  MIC: < 1 µg/mL
[2]
  MIC: 12.5 to 150 µg/mL (≈ 27.6 to 331 µM)
E. coli 25922
  MIC: 1 to 3.5 µg/mL (≈ 2.21 to 7.73 µM)
E. coli LZ3111
  MIC: 12.5 to 150 µg/mL (≈ 27.6 to 331 µM)

## CCc1c(-c2ccc3c(c2)cc(CN2CCC[C@H]2C(=O)OC)n3C)[nH]c(=O)c(C(=O)O)c1O [Cpd 190, (S)-5-ethyl-4-hydroxy-6-(2-((2-(methoxycarbonyl)pyrrolidin-1-yl)methyl)-1-methyl-1H-indol-5-yl)-2-oxo-1,2-dihydropyridine-3-carboxylic acid]
[1]
  MIC: < 1 µg/mL
[2]
  MIC: 3.5 to 12.5 µg/mL (≈ 7.72 to 27.6 µM)
E. coli 25922
  MIC: 12.5 to 150 µg/mL (≈ 27.6 to 331 µM)
E. coli LZ3111
  MIC: 12.5 to 150 µg/mL (≈ 27.6 to 331 µM)

## CCc1c(-c2ccc3c(c2)cc(CN2CCC(C(=O)N(C)C)C2)n3C)[nH]c(=O)c(C(=O)O)c1O (centres unmarked) [Cpd 191, 6-(2-((3-(dimethylcarbamoyl)pyrrolidin-1-yl)methyl)-1-methyl-1H-indol-5-yl)-5-ethyl-4-hydroxy-2-oxo-1,2-dihydropyridine-3-carboxylic acid]
[1]
  MIC: < 1 µg/mL
[2]
  MIC: 3.5 to 12.5 µg/mL (≈ 7.5 to 26.8 µM)
E. coli 25922
  MIC: 1 to 3.5 µg/mL (≈ 2.14 to 7.5 µM)
E. coli LZ3111
  MIC: 12.5 to 150 µg/mL (≈ 26.8 to 322 µM)

## CCc1c(-c2ccc3c(c2)cc(CN2CC(F)(F)C2)n3C)[nH]c(=O)c(C(=O)O)c1O [Cpd 195, 6-(2-((3,3-difluoroazetidin-1-yl)methyl)-1-methyl-1H-indol-5-yl)-5-ethyl-4-hydroxy-2-oxo-1,2-dihydropyridine-3-carboxylic acid]
[1]
  MIC: < 1 µg/mL
[2]
  MIC: 1 to 3.5 µg/mL (≈ 2.4 to 8.39 µM)
E. coli 25922
  MIC: 3.5 to 12.5 µg/mL (≈ 8.39 to 29.9 µM)
E. coli LZ3111
  MIC: 12.5 to 150 µg/mL (≈ 29.9 to 359 µM)
